Data as given in publication PMC10796475, “Immobilization of Thermoplasma acidophilum Glucose Dehydrogenase and Isocitrate Dehydrogenase Through Enzyme-Inorganic Hybrid Nanocrystal Formation” (Current Microbiology, 2024).

Columns and labels:
[1] = biological target: T1, TaIDH (T. acidophilum isocitrate dehydrogenase) (Thermoplasma acidophilum, UniProt Q9HLV8); experiment: NADPH formation at […] nm, initial rate (oxidative decarboxylation); type: biochemical; details: free enzyme; NADP+ 0.2 mM, MgCl2 0.4 mM; HEPES-NaOH pH 6.5, 37 °C; partially purified
T1 construct: gene Ta0117; pET21b(+) in E. coli BL21(DE3)pLysS; partially purified by heat treatment (60 °C, 15 min)
T1 sequence (Q9HLV8 1-405): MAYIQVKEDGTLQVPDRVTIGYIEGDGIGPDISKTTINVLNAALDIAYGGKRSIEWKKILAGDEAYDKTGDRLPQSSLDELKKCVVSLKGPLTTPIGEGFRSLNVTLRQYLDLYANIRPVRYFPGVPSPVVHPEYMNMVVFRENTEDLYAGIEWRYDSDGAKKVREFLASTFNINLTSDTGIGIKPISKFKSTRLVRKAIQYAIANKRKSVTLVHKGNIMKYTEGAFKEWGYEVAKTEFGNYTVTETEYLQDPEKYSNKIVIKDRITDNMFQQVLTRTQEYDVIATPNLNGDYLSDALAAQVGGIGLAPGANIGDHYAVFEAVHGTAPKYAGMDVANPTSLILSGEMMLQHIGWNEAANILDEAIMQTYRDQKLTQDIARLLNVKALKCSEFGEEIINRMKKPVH

[2] = biological target: T2, TaGDH (Thermoplasma acidophilum glucose dehydrogenase) (Thermoplasma acidophilum, UniProt P13203); experiment: NADPH formation at […] nm, initial rate; type: biochemical; details: free enzyme; NADP+ 0.2 mM; HEPES-NaOH pH 6.5, 37 °C; partially purified
T2 construct: gene gdh; pET21b(+) in E. coli Rosetta(DE3)pLysS; partially purified by heat treatment (60 °C, 15 min)
T2 sequence (P13203 2-361): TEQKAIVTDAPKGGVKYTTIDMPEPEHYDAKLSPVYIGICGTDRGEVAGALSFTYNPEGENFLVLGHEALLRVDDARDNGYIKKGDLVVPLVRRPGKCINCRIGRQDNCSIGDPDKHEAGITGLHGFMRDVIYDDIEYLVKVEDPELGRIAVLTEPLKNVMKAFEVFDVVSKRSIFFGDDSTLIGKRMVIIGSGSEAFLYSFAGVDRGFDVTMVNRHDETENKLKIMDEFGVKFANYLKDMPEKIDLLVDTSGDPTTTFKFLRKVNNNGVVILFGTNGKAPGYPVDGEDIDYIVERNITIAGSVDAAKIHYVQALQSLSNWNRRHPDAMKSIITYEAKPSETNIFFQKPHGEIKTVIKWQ

SMILES	NADPH formation at 340 nm, initial rate (oxidative decarboxylation) [1]	NADPH formation at 340 nm, initial rate [2]
O=C(O)CC(C(=O)O)C(O)C(=O)O (racemic) [DL-isocitric acid]	NADPH released by the decarboxylation and oxidation of DL-isocitric acid per minute	–
OC[C@H]1OC(O)[C@H](O)[C@@H](O)[C@@H]1O (stereo partly drawn) [D-glucose]	–	micromoles of NADPH released by the oxidation of glucose per minute
